What all share (test): cell-based
One experiment deals with hNav1.7 (Homo sapiens, UniProt Q15858). In kind it is cell-based. Particulars: IonWorks Quattro, use-dependent block, hNav1.7; read-out: IWQ Use Nav1.7.
The next experiment addresses hNav1.3 (Homo sapiens, UniProt Q9NY46). Particulars: IonWorks Quattro, use-dependent block, hNav1.3; read-out: IWQ Use Nav1.3.
For the next experiment, the target named is hNav1.5 (Homo sapiens, UniProt Q14524). The following applies: IonWorks Quattro, use-dependent block, hNav1.5; read-out: IWQ Use Nav1.5.

Positions of bridges follow the written chain, without caps; N, C: chain ends. Residues, ends and D or L forms follow the SMILES beside them.

hNav1.7, sequence (Q15858 whole entry, looked up): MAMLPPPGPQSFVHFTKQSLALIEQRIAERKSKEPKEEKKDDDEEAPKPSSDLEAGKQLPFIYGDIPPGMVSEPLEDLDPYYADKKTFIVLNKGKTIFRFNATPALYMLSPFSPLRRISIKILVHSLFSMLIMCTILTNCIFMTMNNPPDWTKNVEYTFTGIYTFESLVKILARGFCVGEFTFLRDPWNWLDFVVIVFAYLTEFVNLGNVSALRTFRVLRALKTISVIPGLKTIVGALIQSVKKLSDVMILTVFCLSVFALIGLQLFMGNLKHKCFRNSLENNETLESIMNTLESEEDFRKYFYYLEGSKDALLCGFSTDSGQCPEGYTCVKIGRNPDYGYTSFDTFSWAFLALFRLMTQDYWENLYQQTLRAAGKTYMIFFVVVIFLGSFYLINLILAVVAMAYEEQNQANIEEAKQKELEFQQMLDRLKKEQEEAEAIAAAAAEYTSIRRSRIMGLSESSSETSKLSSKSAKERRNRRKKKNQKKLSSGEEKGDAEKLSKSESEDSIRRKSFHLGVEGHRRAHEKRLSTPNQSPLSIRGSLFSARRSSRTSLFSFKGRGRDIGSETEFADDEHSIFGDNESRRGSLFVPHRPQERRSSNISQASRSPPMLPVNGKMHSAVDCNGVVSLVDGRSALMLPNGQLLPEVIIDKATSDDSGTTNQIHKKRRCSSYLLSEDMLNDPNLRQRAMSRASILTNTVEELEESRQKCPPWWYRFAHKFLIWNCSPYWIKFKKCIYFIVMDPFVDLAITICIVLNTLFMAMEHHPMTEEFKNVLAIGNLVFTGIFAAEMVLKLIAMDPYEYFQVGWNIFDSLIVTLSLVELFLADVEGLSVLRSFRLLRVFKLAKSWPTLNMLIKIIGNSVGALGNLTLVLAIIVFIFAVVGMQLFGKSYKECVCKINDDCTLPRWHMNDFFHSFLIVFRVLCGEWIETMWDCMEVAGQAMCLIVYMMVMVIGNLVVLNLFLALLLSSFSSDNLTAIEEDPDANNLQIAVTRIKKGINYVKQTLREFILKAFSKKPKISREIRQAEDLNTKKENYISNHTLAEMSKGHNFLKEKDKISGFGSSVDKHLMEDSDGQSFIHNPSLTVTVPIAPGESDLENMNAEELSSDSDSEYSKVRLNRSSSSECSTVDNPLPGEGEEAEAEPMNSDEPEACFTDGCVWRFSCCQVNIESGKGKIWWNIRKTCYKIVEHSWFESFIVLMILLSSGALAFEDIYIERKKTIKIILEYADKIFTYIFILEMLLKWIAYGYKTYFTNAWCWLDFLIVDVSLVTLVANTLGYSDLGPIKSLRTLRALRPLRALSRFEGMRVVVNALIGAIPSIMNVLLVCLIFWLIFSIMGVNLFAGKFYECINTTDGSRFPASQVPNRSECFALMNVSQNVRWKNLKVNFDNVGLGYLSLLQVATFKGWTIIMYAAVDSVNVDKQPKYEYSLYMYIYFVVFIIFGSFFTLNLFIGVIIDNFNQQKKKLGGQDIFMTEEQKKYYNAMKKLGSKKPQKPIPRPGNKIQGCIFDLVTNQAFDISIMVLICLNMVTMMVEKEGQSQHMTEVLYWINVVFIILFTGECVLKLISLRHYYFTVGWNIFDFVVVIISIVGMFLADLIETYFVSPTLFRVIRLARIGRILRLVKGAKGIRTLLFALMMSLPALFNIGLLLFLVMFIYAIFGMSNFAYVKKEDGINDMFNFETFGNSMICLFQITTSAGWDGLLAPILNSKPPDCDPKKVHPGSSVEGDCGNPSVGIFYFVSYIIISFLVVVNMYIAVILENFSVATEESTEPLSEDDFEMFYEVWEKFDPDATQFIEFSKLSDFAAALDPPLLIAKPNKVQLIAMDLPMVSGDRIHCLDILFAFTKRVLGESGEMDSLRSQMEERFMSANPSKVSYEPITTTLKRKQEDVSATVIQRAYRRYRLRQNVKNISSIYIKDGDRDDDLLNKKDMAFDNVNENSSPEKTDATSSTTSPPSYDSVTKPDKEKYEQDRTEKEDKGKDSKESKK
hNav1.3, sequence (Q9NY46 whole entry, looked up): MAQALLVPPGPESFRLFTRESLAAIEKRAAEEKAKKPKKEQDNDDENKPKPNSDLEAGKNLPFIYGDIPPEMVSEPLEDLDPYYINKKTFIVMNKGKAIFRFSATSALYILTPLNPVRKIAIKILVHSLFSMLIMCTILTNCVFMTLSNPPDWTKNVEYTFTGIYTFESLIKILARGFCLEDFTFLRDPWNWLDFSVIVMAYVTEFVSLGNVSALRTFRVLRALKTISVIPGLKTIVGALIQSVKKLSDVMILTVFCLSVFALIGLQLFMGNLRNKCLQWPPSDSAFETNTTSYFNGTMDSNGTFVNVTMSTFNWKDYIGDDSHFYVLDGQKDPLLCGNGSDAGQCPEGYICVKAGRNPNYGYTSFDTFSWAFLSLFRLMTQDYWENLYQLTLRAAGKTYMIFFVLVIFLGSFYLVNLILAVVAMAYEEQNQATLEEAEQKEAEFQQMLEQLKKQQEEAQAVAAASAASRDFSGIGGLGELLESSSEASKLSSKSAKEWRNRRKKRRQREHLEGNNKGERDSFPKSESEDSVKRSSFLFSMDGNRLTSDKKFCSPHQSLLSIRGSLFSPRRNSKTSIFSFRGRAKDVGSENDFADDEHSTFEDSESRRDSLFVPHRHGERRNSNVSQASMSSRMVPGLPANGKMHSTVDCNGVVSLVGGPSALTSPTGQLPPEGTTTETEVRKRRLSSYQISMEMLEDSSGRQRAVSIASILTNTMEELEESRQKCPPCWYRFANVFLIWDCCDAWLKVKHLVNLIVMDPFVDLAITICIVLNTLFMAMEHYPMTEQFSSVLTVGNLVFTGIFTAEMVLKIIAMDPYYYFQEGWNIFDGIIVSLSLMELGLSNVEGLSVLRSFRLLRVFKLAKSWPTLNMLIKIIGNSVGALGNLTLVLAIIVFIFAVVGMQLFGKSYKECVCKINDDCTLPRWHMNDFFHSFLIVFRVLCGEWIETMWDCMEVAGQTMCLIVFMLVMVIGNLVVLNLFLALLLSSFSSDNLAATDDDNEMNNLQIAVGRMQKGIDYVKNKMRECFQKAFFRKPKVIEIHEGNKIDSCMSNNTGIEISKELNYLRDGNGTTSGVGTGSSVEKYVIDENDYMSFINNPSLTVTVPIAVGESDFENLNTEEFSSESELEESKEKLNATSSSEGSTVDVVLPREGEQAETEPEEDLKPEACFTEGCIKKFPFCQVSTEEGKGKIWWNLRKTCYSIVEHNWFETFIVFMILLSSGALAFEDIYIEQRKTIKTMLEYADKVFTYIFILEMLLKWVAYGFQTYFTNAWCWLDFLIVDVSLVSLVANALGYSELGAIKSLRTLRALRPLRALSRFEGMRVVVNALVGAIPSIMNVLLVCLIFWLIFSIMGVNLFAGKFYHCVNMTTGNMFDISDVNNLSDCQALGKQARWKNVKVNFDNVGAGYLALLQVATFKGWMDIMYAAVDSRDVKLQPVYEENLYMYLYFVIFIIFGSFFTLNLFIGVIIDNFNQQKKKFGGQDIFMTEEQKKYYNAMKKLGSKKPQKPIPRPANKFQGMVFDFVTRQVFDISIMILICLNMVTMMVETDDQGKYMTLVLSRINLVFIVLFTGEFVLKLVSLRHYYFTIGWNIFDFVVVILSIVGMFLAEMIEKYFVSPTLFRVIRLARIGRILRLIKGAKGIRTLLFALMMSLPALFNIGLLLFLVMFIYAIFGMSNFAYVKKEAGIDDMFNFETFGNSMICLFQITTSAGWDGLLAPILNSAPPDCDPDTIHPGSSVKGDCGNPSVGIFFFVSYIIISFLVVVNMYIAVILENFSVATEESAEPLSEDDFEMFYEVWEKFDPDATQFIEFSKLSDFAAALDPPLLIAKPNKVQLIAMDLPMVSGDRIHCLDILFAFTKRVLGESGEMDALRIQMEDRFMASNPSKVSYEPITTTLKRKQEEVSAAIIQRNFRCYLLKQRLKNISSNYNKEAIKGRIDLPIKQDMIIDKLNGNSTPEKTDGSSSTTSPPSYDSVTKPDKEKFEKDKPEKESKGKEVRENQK

Consider `CC[C@H](C)[C@@H]1NC(=O)[C@@H]2CSSC[C@@H]3NC(=O)[C@H](C(C)C)NC(=O)[C@H](CC(C)C)NC(=O)[C@H](CC(N)=O)NC(=O)[C@@H]4CCCN4C(=O)[C@H](CCCNC(=N)N)NC(=O)[C@H](CSSC[C@H](NC(=O)[C@@H](N)CC(=O)O)C(=O)N[C@@H](CC(C)C)C(=O)NCC(=O)N[C@@H](C)C(=O)N[C@@H](Cc4ccccc4)C(=O)N[C@@H](CCCNC(=N)N)C(=O)N[C@@H](CCCCN)C(=O)N2)NC(=O)[C@H](CSSC[C@@H](C(=O)N[C@@H](CCCCN)C(=O)N[C@@H](Cc2ccc(O)cc2)C(=O)N[C@H](C(=O)N[C@@H](Cc2ccccc2)C(=O)N[C@@H](Cc2c[nH]c4ccccc24)C(=O)O)C(C)C)NC(=O)[C@H](Cc2c[nH]c4ccccc24)NC(=O)[C@H](CCCNC(=N)N)NC(=O)[C@H](Cc2c[nH]cn2)NC(=O)[C@H]([C@@H](C)O)NC(=O)[C@H](CCCNC(=N)N)NC(=O)[C@H](CO)NC3=O)NC(=O)[C@H](CCCCN)NC(=O)[C@H](CC(=O)O)NC(=O)[C@H](CC(N)=O)NC(=O)[C@H](CC(=O)O)NC(=O)[C@@H]2CCCN2C1=O` [compound 813] (H-DCLGAFRKCIPDNDKCCRPNLVCSRTHRWCKYVFW-OH; disulfide 2-17, 9-23, 16-30), for which the IC50 at hNav1.7, at hNav1.3 and on hNav1.5 was over 5 µM each time.

For `CC[C@H](C)[C@@H]1NC(=O)[C@@H]2CSSC[C@@H]3NC(=O)[C@H](C(C)C)NC(=O)[C@H](CC(C)C)NC(=O)[C@H](CC(N)=O)NC(=O)[C@@H]4CCCN4C(=O)[C@H](CCCNC(=N)N)NC(=O)[C@H](CSSC[C@H](NC(=O)[C@@H](N)CC(=O)O)C(=O)N[C@@H](CC(C)C)C(=O)NCC(=O)N[C@@H](C)C(=O)N[C@@H](CC(C)C)C(=O)N[C@@H](CCCNC(=N)N)C(=O)N[C@@H](CCCCN)C(=O)N2)NC(=O)[C@H](CSSC[C@@H](C(=O)N[C@@H](CCCCN)C(=O)N[C@@H](Cc2ccc(O)cc2)C(=O)N[C@H](C(=O)N[C@@H](Cc2ccccc2)C(=O)N[C@@H](Cc2c[nH]c4ccccc24)C(=O)O)C(C)C)NC(=O)[C@H](Cc2c[nH]c4ccccc24)NC(=O)[C@H](CCCNC(=N)N)NC(=O)[C@H](Cc2c[nH]cn2)NC(=O)[C@H]([C@@H](C)O)NC(=O)[C@H](CCCNC(=N)N)NC(=O)[C@H](CO)NC3=O)NC(=O)[C@H](CCCCN)NC(=O)[C@H](CC(=O)O)NC(=O)[C@H](CC(N)=O)NC(=O)[C@H](CC(=O)O)NC(=O)[C@@H]2CCCN2C1=O` [compound 814] (H-DCLGALRKCIPDNDKCCRPNLVCSRTHRWCKYVFW-OH; disulfide 2-17, 9-23, 16-30), the results for the IC50 at hNav1.7, at hNav1.3 and on hNav1.5 were 0.6 µM, 0.6 µM and over 5 µM, respectively.

`CC[C@H](C)[C@@H]1NC(=O)[C@@H]2CSSC[C@@H]3NC(=O)[C@H](C(C)C)NC(=O)[C@H](CC(C)C)NC(=O)[C@H](CC(N)=O)NC(=O)[C@@H]4CCCN4C(=O)[C@H](CCCNC(=N)N)NC(=O)[C@H](CSSC[C@H](NC(=O)[C@H](CC(=O)O)NC(=O)[C@H](CO)NC(=O)CN)C(=O)N[C@@H](CC(C)C)C(=O)NCC(=O)N[C@@H](C)C(=O)N[C@@H](Cc4ccccc4)C(=O)N[C@@H](CCCNC(=N)N)C(=O)N[C@@H](CCCCN)C(=O)N2)NC(=O)[C@H](CSSC[C@@H](C(=O)N[C@@H](CCCCN)C(=O)N[C@@H](Cc2ccc(O)cc2)C(=O)N[C@H](C(=O)N[C@@H](Cc2ccccc2)C(=O)N[C@@H](Cc2c[nH]c4ccccc24)C(=O)O)C(C)C)NC(=O)[C@H](Cc2c[nH]c4ccccc24)NC(=O)[C@H](CCCNC(=N)N)NC(=O)[C@H](Cc2c[nH]cn2)NC(=O)[C@H]([C@@H](C)O)NC(=O)[C@H](CCCNC(=N)N)NC(=O)[C@H](CO)NC3=O)NC(=O)[C@H](CCCCN)NC(=O)[C@H](CC(=O)O)NC(=O)[C@H](CC(N)=O)NC(=O)[C@H](CC(=O)O)NC(=O)[C@@H]2CCCN2C1=O` [compound 815] (H-GSDCLGAFRKCIPDNDKCCRPNLVCSRTHRWCKYVFW-OH; disulfide 4-19, 11-25, 18-32): the IC50 at hNav1.7, on hNav1.3 and at hNav1.5 was over 5 µM throughout.

As for `CC[C@H](C)[C@@H]1NC(=O)[C@@H]2CSSC[C@@H]3NC(=O)[C@H](C(C)C)NC(=O)[C@H](CC(C)C)NC(=O)[C@H](CC(N)=O)NC(=O)[C@@H]4CCCN4C(=O)[C@H](CCCNC(=N)N)NC(=O)[C@H](CSSC[C@H](NC(=O)[C@@H](N)CC(=O)O)C(=O)N[C@@H](CC(C)C)C(=O)NCC(=O)N[C@@H](C)C(=O)N[C@@H](Cc4ccccc4)C(=O)N[C@@H](CCCNC(=N)N)C(=O)N[C@@H](CCCCN)C(=O)N2)NC(=O)[C@H](CSSC[C@@H](C(=O)N[C@@H](CCCCN)C(=O)N[C@@H](Cc2ccc(O)cc2)C(=O)N[C@H](C(=O)N[C@@H](Cc2ccccc2)C(=O)N[C@@H](Cc2ccccc2)C(=O)O)C(C)C)NC(=O)[C@H](Cc2c[nH]c4ccccc24)NC(=O)[C@H](CCCNC(=N)N)NC(=O)[C@H](Cc2c[nH]cn2)NC(=O)[C@H]([C@@H](C)O)NC(=O)[C@H](CCCNC(=N)N)NC(=O)[C@H](CO)NC3=O)NC(=O)[C@H](CCCCN)NC(=O)[C@H](CC(=O)O)NC(=O)[C@H](CC(N)=O)NC(=O)[C@H](CC(=O)O)NC(=O)[C@@H]2CCCN2C1=O` [compound 817] (H-DCLGAFRKCIPDNDKCCRPNLVCSRTHRWCKYVFF-OH; disulfide 2-17, 9-23, 16-30), the results for the IC50 on hNav1.7, at hNav1.3 and at hNav1.5 were 1.5 µM, 0.5 µM and over 5 µM, respectively.

For `CC[C@H](C)[C@@H]1NC(=O)[C@@H]2CSSC[C@@H]3NC(=O)[C@H](C(C)C)NC(=O)[C@H](CC(C)C)NC(=O)[C@H](CC(N)=O)NC(=O)[C@@H]4CCCN4C(=O)[C@H](CCCNC(=N)N)NC(=O)[C@H](CSSC[C@H](NC(=O)[C@@H](N)CC(=O)O)C(=O)N[C@@H](CC(C)C)C(=O)NCC(=O)N[C@@H](C)C(=O)N[C@@H](CC(C)C)C(=O)N[C@@H](CCCNC(=N)N)C(=O)N[C@@H](CCCCN)C(=O)N2)NC(=O)[C@H](CSSC[C@@H](C(=O)N[C@@H](CCCCN)C(=O)N[C@@H](Cc2ccc(O)cc2)C(=O)N[C@H](C(=O)N[C@@H](Cc2ccccc2)C(=O)N[C@@H](Cc2ccccc2)C(=O)O)C(C)C)NC(=O)[C@H](Cc2c[nH]c4ccccc24)NC(=O)[C@H](CCCNC(=N)N)NC(=O)[C@H](Cc2c[nH]cn2)NC(=O)[C@H]([C@@H](C)O)NC(=O)[C@H](CCCNC(=N)N)NC(=O)[C@H](CO)NC3=O)NC(=O)[C@H](CCCCN)NC(=O)[C@H](CC(=O)O)NC(=O)[C@H](CC(N)=O)NC(=O)[C@H](CC(=O)O)NC(=O)[C@@H]2CCCN2C1=O` [compound 818] (H-DCLGALRKCIPDNDKCCRPNLVCSRTHRWCKYVFF-OH; disulfide 2-17, 9-23, 16-30), the IC50 on hNav1.7 was 2.3 µM; at hNav1.3, 0.8 µM; on hNav1.5 it was over 5 µM.

As to `CC[C@H](C)[C@@H]1NC(=O)[C@@H]2CSSC[C@@H]3NC(=O)[C@H](C(C)C)NC(=O)[C@H](CC(C)C)NC(=O)[C@H](CC(N)=O)NC(=O)[C@@H]4CCCN4C(=O)[C@H](CCCNC(=N)N)NC(=O)[C@H](CSSC[C@H](NC(=O)[C@H](CC(=O)O)NC(=O)[C@H](CO)NC(=O)CN)C(=O)N[C@@H](CC(C)C)C(=O)NCC(=O)N[C@@H](C)C(=O)N[C@@H](Cc4ccccc4)C(=O)N[C@@H](CCCNC(=N)N)C(=O)N[C@@H](CCCCN)C(=O)N2)NC(=O)[C@H](CSSC[C@@H](C(=O)N[C@@H](CCCCN)C(=O)N[C@@H](Cc2ccc(O)cc2)C(=O)N[C@H](C(=O)N[C@@H](Cc2ccccc2)C(=O)N[C@@H](Cc2ccccc2)C(=O)O)C(C)C)NC(=O)[C@H](Cc2c[nH]c4ccccc24)NC(=O)[C@H](CCCNC(=N)N)NC(=O)[C@H](Cc2c[nH]cn2)NC(=O)[C@H]([C@@H](C)O)NC(=O)[C@H](CCCNC(=N)N)NC(=O)[C@H](CO)NC3=O)NC(=O)[C@H](CCCCN)NC(=O)[C@H](CC(=O)O)NC(=O)[C@H](CC(N)=O)NC(=O)[C@H](CC(=O)O)NC(=O)[C@@H]2CCCN2C1=O` [compound 819] (H-GSDCLGAFRKCIPDNDKCCRPNLVCSRTHRWCKYVFF-OH; disulfide 4-19, 11-25, 18-32), the IC50 is 1.5 µM at hNav1.7, 0.5 µM on hNav1.3 and over 5 µM on hNav1.5.

In the case of `CC[C@H](C)[C@@H]1NC(=O)[C@@H]2CSSC[C@@H]3NC(=O)[C@H](C(C)C)NC(=O)[C@H](CC(C)C)NC(=O)[C@H](CC(N)=O)NC(=O)[C@@H]4CCCN4C(=O)[C@H](CCCNC(=N)N)NC(=O)[C@H](CSSC[C@H](NC(=O)[C@H](CC(=O)O)NC(=O)[C@H](CO)NC(=O)CN)C(=O)N[C@@H](CC(C)C)C(=O)NCC(=O)N[C@@H](C)C(=O)N[C@@H](Cc4ccccc4)C(=O)N[C@@H](CCCNC(=N)N)C(=O)N[C@@H](CCCCN)C(=O)N2)NC(=O)[C@H](CSSC[C@@H](C(=O)N[C@@H](CCCCN)C(=O)N[C@@H](Cc2ccc(O)cc2)C(=O)N[C@H](C(=O)N[C@@H](Cc2ccccc2)C(=O)O)C(C)C)NC(=O)[C@H](Cc2c[nH]c4ccccc24)NC(=O)[C@H](CCCNC(=N)N)NC(=O)[C@H](Cc2c[nH]cn2)NC(=O)[C@H]([C@@H](C)O)NC(=O)[C@H](CCCNC(=N)N)NC(=O)[C@H](CO)NC3=O)NC(=O)[C@H](CCCCN)NC(=O)[C@H](CC(=O)O)NC(=O)[C@H](CC(N)=O)NC(=O)[C@H](CC(=O)O)NC(=O)[C@@H]2CCCN2C1=O` [compound 821] (H-GSDCLGAFRKCIPDNDKCCRPNLVCSRTHRWCKYVF-OH; disulfide 4-19, 11-25, 18-32), the IC50 at hNav1.7 is 3.2 µM; on hNav1.3, 3.2 µM; on hNav1.5 it was over 5 µM.
